Laboratory results reported in ChEMBL document CHEMBL1201862, “PubChem BioAssay data set” (2004).
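Following 48 hours of exposure in 96-well plates, responses at five concentrations were used to interpolate endpoints linearly. GI50 marks 50% less growth.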 The source made the active and inactive calls. Cut-off read from the data, not from the text of the source: active = GI50 up to about 1.1 µM and inactive = higher.

Key:
Experiment in all cases: growth of human tumour cells (NCI), 48 h
CAKI-1 = tested on: CAKI-1
COLO 205 = tested on: COLO 205
HCT-15 = tested on: HCT-15
HT-29 = tested on: HT-29
M14 = tested on: M14
MOLT-4 = tested on: MOLT-4
Malme-3M = tested on: Malme-3M
OVCAR-3 = tested on: OVCAR-3
OVCAR-5 = tested on: OVCAR-5
SF-268 = tested on: SF-268
SF-539 = tested on: SF-539
SK-OV-3 = tested on: SK-OV-3
SNB-75 = tested on: SNB-75
SW-620 = tested on: SW-620
UO-31 = tested on: UO-31
HL-60 = tested on: HL-60

| SMILES | GI50 (CAKI-1) | GI50 (COLO 205) | GI50 (HCT-15) [µM] | GI50 (HT-29) | GI50 (M14) | GI50 (MOLT-4) | GI50 (Malme-3M) | GI50 (OVCAR-3) | GI50 (OVCAR-5) | GI50 (SF-268) | GI50 (SF-539) | GI50 (SK-OV-3) | GI50 (SNB-75) | GI50 (SW-620) | GI50 (UO-31) | GI50 (HL-60) |
| --- | --- | --- | --- | --- | --- | --- | --- | --- | --- | --- | --- | --- | --- | --- | --- | --- |
| O=C1CCN2CCC(=O)c3c2c(cc2ccccc32)N1 | > 100 µM (inactive) | > 100 µM (inactive) | > 100 | > 100 µM (inactive) | > 100 µM (inactive) | > 100 µM (inactive) | > 100 µM (inactive) | > 100 µM (inactive) | > 100 µM (inactive) | > 100 µM (inactive) | > 100 µM (inactive) | > 100 µM (inactive) | > 100 µM (inactive) | > 100 µM (inactive) | 75.5 µM (inactive) |  |
| CCOc1ccc(NCC2CC/C(=C\c3ccc(Cl)cc3)C2=O)cc1 (centres undefined) | > 45.1 µM (inactive) | > 37.9 µM (inactive) | 7.73 | > 42.1 µM (inactive) | 20.4 µM (inactive) | 16.8 µM (inactive) | 34.5 µM (inactive) | > 36.9 µM (inactive) | > 100 µM (inactive) | > 55.2 µM (inactive) | > 41.7 µM (inactive) | > 100 µM (inactive) | > 44.5 µM (inactive) | 17.1 µM (inactive) | > 42.5 µM (inactive) | 1.74 µM (inactive) |
| COc1cc2c(cc1OC)C1(c3ccccc3)ON=C(c3ccccc3)N1CS2 (centres undefined) | > 100 µM (inactive) | > 100 µM (inactive) | > 100 | 55.2 µM (inactive) | 46 µM (inactive) | 16.1 µM (inactive) | > 100 µM (inactive) | > 100 µM (inactive) | > 100 µM (inactive) | > 100 µM (inactive) | > 100 µM (inactive) | > 100 µM (inactive) | > 100 µM (inactive) | > 100 µM (inactive) | > 100 µM (inactive) | 16.1 µM (inactive) |
| COc1ccc2c(=O)c([Se]c3coc4cc(OC)ccc4c3=O)coc2c1 | > 100 µM (inactive) | > 100 µM (inactive) | 50.9 | > 100 µM (inactive) | 18.3 µM (inactive) | 51.8 µM (inactive) | 34.3 µM (inactive) | > 100 µM (inactive) | > 100 µM (inactive) | > 100 µM (inactive) | 69 µM (inactive) | > 100 µM (inactive) | 20.8 µM (inactive) | > 100 µM (inactive) | 57.4 µM (inactive) | 40.4 µM (inactive) |
| CCOC(=O)c1nc(-c2ccccc2)oc1OCC |  | > 100 µM (inactive) |  | > 100 µM (inactive) | > 100 µM (inactive) | 60.7 µM (inactive) |  | > 100 µM (inactive) |  | > 100 µM (inactive) | > 100 µM (inactive) | > 100 µM (inactive) | > 100 µM (inactive) | > 100 µM (inactive) |  | 49.9 µM (inactive) |
| CN/C(=N\C#N)N(Cc1ccccc1)Cc1ccccc1 | > 100 µM (inactive) | > 100 µM (inactive) | > 100 | > 100 µM (inactive) | > 100 µM (inactive) | > 100 µM (inactive) | > 100 µM (inactive) | > 100 µM (inactive) | > 100 µM (inactive) | > 100 µM (inactive) | > 100 µM (inactive) | > 100 µM (inactive) | > 100 µM (inactive) | > 100 µM (inactive) | > 100 µM (inactive) | > 100 µM (inactive) |
| N/N=C(/C(=O)Nc1cccc(Cl)c1)C(C(=O)c1ccc(O)cc1O)C1OC(=O)c2ccccc21 (centres undefined) |  | > 100 µM (inactive) | > 100 | > 100 µM (inactive) | > 100 µM (inactive) | 31.8 µM (inactive) | > 100 µM (inactive) | > 100 µM (inactive) | > 100 µM (inactive) | 51.4 µM (inactive) | > 100 µM (inactive) | > 100 µM (inactive) |  | > 100 µM (inactive) | > 100 µM (inactive) | > 100 µM (inactive) |
| COc1ccc(CN(O)C2C(CO)OC(n3cc(I)c(=O)[nH]c3=O)C2O)cc1 (centres undefined) | > 100 µM (inactive) | > 100 µM (inactive) | > 100 | > 100 µM (inactive) | > 100 µM (inactive) | > 100 µM (inactive) | > 100 µM (inactive) | > 100 µM (inactive) | > 100 µM (inactive) | > 100 µM (inactive) | > 100 µM (inactive) | > 100 µM (inactive) | > 100 µM (inactive) | > 100 µM (inactive) | > 100 µM (inactive) | > 100 µM (inactive) |
| CCOC(=O)[C@H]1Nc2ccc([N+](=O)[O-])cc2C2c3ccccc3CC21 (some centres undefined) | 27.8 µM (inactive) | 30.9 µM (inactive) | 15.3 | 16 µM (inactive) | 15.2 µM (inactive) | 5.12 µM (inactive) | 19 µM (inactive) | 9.84 µM (inactive) | 16.6 µM (inactive) | 16.5 µM (inactive) | 17.3 µM (inactive) |  | 26 µM (inactive) | 11.9 µM (inactive) | 15 µM (inactive) |  |
